The record followed here is article PMC8685350, “Activation of the SARS-CoV-2 NSP14 3′–5′ exoribonuclease by NSP10 and response to antiviral inhibitors” (The Journal of Biological Chemistry, 2021).

Assay [1] has as its target T1, NSP10/14 complex (Severe acute respiratory syndrome coronavirus 2, UniProt P0DTD1).
T1 construct: gene rep; full-length NSP14 and NSP10 (139 aa), mature chains of replicase polyprotein 1ab; N-terminal His-tags (pDEST527), E. coli Rosetta2; assembled in vitro, copurified on Mono S, near stoichiometric; with Non-structural protein 10
The assay is described as follows: biochemical.

Assay [2] concerns the target T1, NSP10/14 complex. The format is binding.
Another assay deals with T2, NSP14 (Severe acute respiratory syndrome coronavirus 2, UniProt P0DTD1).
T2 construct: gene rep; full-length NSP14, mature chain of replicase polyprotein 1ab; N-terminal His-tag (pDEST527), E. coli Rosetta2
Type of assay: binding.

Regarding `Nc1ncnc2c1ncn2[C@@H]1O[C@H](CSCC[C@H](N)C(=O)O)[C@@H](O)[C@H]1O` [S-adenosylhomocysteine], the EC50 (commonly the concentration at which the effect is half-maximal) on NSP10/14 complex [1] was 25 ± 9 µM. In addition, at NSP10/14 complex [2], the “Tm at 400 μM SAH” value was determined as 48.2 ± 0.2 °C. On NSP14, the “Tm at 40 μM SAH (control Tm 43.1 ± 0.2 °C)” value worked out at 48.5 ± 0.17 °C.
